{"source": "patent US20080033046A1", "about": "“Treatment of myocardial infarction with 11HSD1 inhibitors” (University of Edinburgh, priority 2004, published 2008)", "key": {"mouse aortic rings [1]": {"test_system": "mouse aortic rings", "assay": "Angiogenesis in mouse aortic rings embedded in Matrigel (new vessel count)", "assay_type": "cell-based", "conditions": "for effect on the angiostatic effect of corticosterone / direct effect on angiogenesis in aortic rings (drug alone): drug 10^−6 M; for effect on the angiostatic effect of corticosterone: corticosterone 600 nM; for direct effect on angiogenesis in aortic rings (drug alone): no glucocorticoid", "description": "Mice were killed humanely and thoracic aortae were removed, washed in serum free MCDB 131 medium (Invitrogen, UK), cleaned of periadventitial tissue and divided into 1-3 mm rings.\nTo quantify angiogenesis aortic rings were embedded in 200 μl of steroid free Matrigel (Becton Dickinson, UK) and incubated at 37° C. in serum free MCDB 131, with heparin, ascorbic acid, and GA1000 (Cambrex Biosciences, UK) in the presence and absence of: corticosterone (3 nM, 30 nM, 300 nM, 600 nM); 11-dehydrocorticosterone (300 nM, 60 nM); the glucocorticoid receptor antagonist, RU38486 (10^−6M)^59, the mineralocorticoid receptor antagonist, spironolactone (10^−6 M)^60; and/or the […] 11βHSD inhibitor, carbenoxolone (10^−4-10^−6M)^31. All drugs (Sigma-Aldrich, UK) were dissolved in ethanol and diluted in aqueous solution; final ethanol concentration 1-3% v/v. Media were changed every 48 hours. Experiments were performed in triplicate. In initial experiments, new vessels were counted daily using light microscopy (FIG. 1). From these studies day 7 was selected as the appropriate time point to examine the effects of glucocorticoids (FIG. 1c).\nTo confirm the nature of apparent new vessels, endothelial cells were identified by uptake of fluorescent-labelled acetylated low-density lipoprotein (DiI-Ac-LDL)(Biogenesis, Dorset UK) FIG. 1b)."}, "[2]": {"test_system": "subcutaneous sponge implants in mice", "assay": "Subcutaneous sponge implant assay (vessel density, Chalkley counts)", "assay_type": "in vivo, mouse", "conditions": "20 days; for effect of steroid-impregnated sponge on angiogenesis in vivo: 2 mg steroid in silastic insert", "description": "(§1) Mice were anaesthetized with halothane and a sterilised sponge cylinder (0.5 cm×1 cm) (Caligen-Foam Ltd., UK) was implanted subcutaneously on each flank. Sponges contained a silastic insert (Silastic 20 medical grade, Dow Corning Corporation, USA) impregnated with vehicle, 2 mg of cortisol or cortisone, or 5 mg of RU38486. […] Such inserts release their impregnated compounds in vivo at a constant rate for 3 weeks. Human steroids (cortisol and cortisone, equivalent to corticosterone and 11-dehydrocorticosterone) were used to allow distinction from endogenous steroids. In separate experiments (not shown) angiogenesis in placebo-impregnated sponges was not altered by the presence or absence of a contralateral steroid-treated sponge.\n(§2) Twenty days following implantation, mice were decapitated, sponges excised and inserts removed. Sponges were bisected; one half was fixed in 10% formalin and embedded in paraffin wax. Sections (8 μm) were stained with haematoxylin and eosin (H&E). The second half of the sponge was weighed, homogenised in 2 ml sterile phosphate buffered saline at 4° C. and centrifuged (2000 g; 30 minutes). Steroids were extracted from the supernatant using ethyl acetate and cortisol quantified using a specific radioimmunoassay (Amersham Pharmacia Biotech, UK). Sponge vessel density was determined by using the mean of triplicate Chalkley counts on 2 sections per sponge."}, "mouse aortic rings [3]": {"test_system": "mouse aortic rings", "assay": "Angiogenesis in mouse aortic rings embedded in Matrigel (new vessel count)", "assay_type": "cell-based", "conditions": "wild type rings, drug 10^−6 M, 11-dehydrocorticosterone 600 nM"}, "in vivo": {"assay": "in vivo", "conditions": "mouse; for concentration at 20 days: Cortisol level", "description": "as §1, §2"}, "[4]": {"conditions": "aortic rings from 11βHSD-1 −/− mice, glucocorticoid 600 nM, compared with wild type"}, "[5]": {"conditions": "wild type C57B16 aortic rings, 7-day incubation, physiological concentrations (up to 600 nM)"}, "[6]": {"conditions": "wild type rings, listed as Carbenoxolone"}}, "note": "“Also recorded” adds a separate entry of the source."}
{"smiles": "C[C@]12C[C@H](O)[C@H]3[C@@H](CCC4=CC(=O)CC[C@@]43C)[C@@H]1CC[C@@H]2C(=O)CO", "note": "[corticosterone]", "values": [{"measurement": "effect of glucocorticoid on angiogenesis in aortic rings", "setting": "mouse aortic rings [1]; [4]", "result": "inhibited to a similar degree; also recorded: not different between strains"}, {"measurement": "effect of glucocorticoid on angiogenesis in aortic rings", "setting": "mouse aortic rings [1]; [5]", "result": "inhibited angiogenesis"}]}
{"smiles": "C[C@]12CC(=O)[C@H]3[C@@H](CCC4=CC(=O)CC[C@@]43C)[C@@H]1CC[C@@H]2C(=O)CO", "note": "[11-dehydrocorticosterone]", "values": [{"measurement": "effect of glucocorticoid on angiogenesis in aortic rings", "setting": "mouse aortic rings [1]; [4]", "result": "did not inhibit angiogenesis"}, {"measurement": "effect of glucocorticoid on angiogenesis in aortic rings", "setting": "mouse aortic rings [1]; [5]", "result": "inhibited angiogenesis; also recorded: angiostatic effect"}]}
{"smiles": "CC#C[C@]1(O)CC[C@H]2[C@@H]3CCC4=CC(=O)CCC4=C3[C@@H](c3ccc(N(C)C)cc3)C[C@@]21C", "note": "[RU38486]", "values": [{"measurement": "effect on the angiostatic effect of corticosterone", "setting": "mouse aortic rings [1]; wild type rings", "result": "prevented"}, {"measurement": "direct effect on angiogenesis in aortic rings (drug alone)", "setting": "mouse aortic rings [1]; wild type rings", "result": "did not affect; also recorded: no effect"}, {"measurement": "new vessel formation in RU38486 impregnated sponges versus contralateral controls", "setting": "[2]; wild type C57B16 mice, 5 mg in silastic insert", "result": "increased; also recorded: greater"}, {"measurement": "effect on the angiostatic effect of 11-dehydrocorticosterone", "setting": "mouse aortic rings [3]", "result": "prevented"}]}
{"smiles": "C[C@]12CCC(=O)C=C1CC[C@@H]1[C@@H]2C(=O)C[C@@]2(C)[C@H]1CC[C@]2(O)C(=O)CO", "note": "[cortisone]", "values": [{"measurement": "effect of steroid-impregnated sponge on angiogenesis in vivo", "setting": "[2]; 11βHSD-1 −/− mice", "result": "did not inhibit angiogenesis; also recorded: only in wild type mice"}, {"measurement": "effect of steroid-impregnated sponge on angiogenesis in vivo", "setting": "[2]; wild type C57B16 mice", "result": "inhibited angiogenesis"}, {"measurement": "sponge cortisol concentrations after impregnation with cortisone compared with cortisol, in words", "setting": "in vivo", "result": "lower"}, {"measurement": "sponge cortisol concentrations, in words", "setting": "in vivo", "result": "did not elevate"}]}
{"smiles": "C[C@]12CCC(=O)C=C1CC[C@@H]1[C@@H]2[C@@H](O)C[C@@]2(C)[C@H]1CC[C@]2(O)C(=O)CO", "note": "[cortisol]", "values": [{"measurement": "effect of steroid-impregnated sponge on angiogenesis in vivo", "setting": "[2]; 11βHSD-1 −/− mice", "result": "inhibited angiogenesis to a similar degree"}, {"measurement": "effect of steroid-impregnated sponge on angiogenesis in vivo", "setting": "[2]; 11βHSD-1 −/− mice, listed as Cortisol", "result": "inhibited angiogenesis"}, {"measurement": "effect of steroid-impregnated sponge on angiogenesis in vivo", "setting": "[2]; wild type C57B16 mice", "result": "inhibited angiogenesis"}, {"measurement": "concentration at 20 days", "setting": "in vivo; 11bHSD-1 −/−, contralateral placebo treated sponge", "result": "135 ± 46", "unit": "ng/g"}, {"measurement": "concentration at 20 days", "setting": "in vivo; 11bHSD-1 −/−, ipsilateral steroid treated sponge", "result": "3780 ± 1700", "unit": "ng/g"}, {"measurement": "sponge cortisol concentrations, in words", "setting": "in vivo", "result": "similar"}, {"measurement": "concentration at 20 days", "setting": "in vivo; wild type, contralateral placebo treated sponge", "result": "161 ± 18", "unit": "ng/g"}, {"measurement": "concentration at 20 days", "setting": "in vivo; wild type, ipsilateral steroid treated sponge", "result": "4270 ± 186", "unit": "ng/g"}]}
{"smiles": "CC1(C)[C@@H](OC(=O)CCC(=O)O)CC[C@]2(C)[C@H]3C(=O)C=C4[C@@H]5C[C@@](C)(C(=O)O)CC[C@]5(C)CC[C@@]4(C)[C@]3(C)CC[C@@H]12", "note": "[carbenoxolone]", "values": [{"measurement": "effect on angiogenesis in aortic rings at high concentration", "setting": "mouse aortic rings [1]; wild type rings, 10^−4 M", "result": "abolished angiogenesis"}, {"measurement": "effect on the angiostatic effect of corticosterone", "setting": "mouse aortic rings [1]; wild type rings", "result": "did not potentiate; also recorded: did not influence"}, {"measurement": "effect on the angiostatic effect of corticosterone", "setting": "mouse aortic rings [1]; [6]", "result": "no effect"}, {"measurement": "direct effect on angiogenesis in aortic rings (drug alone)", "setting": "mouse aortic rings [1]; wild type rings", "result": "no direct effect"}, {"measurement": "direct effect on angiogenesis in aortic rings (drug alone)", "setting": "mouse aortic rings [1]; [6]", "result": "no effect"}, {"measurement": "effect on the angiostatic effect of 11-dehydrocorticosterone", "setting": "mouse aortic rings [3]", "result": "prevented"}]}
{"smiles": "CC(=O)S[C@@H]1CC2=CC(=O)CC[C@]2(C)[C@H]2CC[C@@]3(C)[C@@H](CC[C@@]34CCC(=O)O4)[C@H]12", "note": "[spironolactone]", "values": [{"measurement": "effect on the angiostatic effect of corticosterone", "setting": "mouse aortic rings [1]; wild type rings", "result": "no effect"}, {"measurement": "direct effect on angiogenesis in aortic rings (drug alone)", "setting": "mouse aortic rings [1]; wild type rings", "result": "no effect"}, {"measurement": "effect on the angiostatic effect of 11-dehydrocorticosterone", "setting": "mouse aortic rings [3]", "result": "no effect"}]}
